Holding throughout (assay type): functional
Test [1] deals with Trypanosoma cruzi. In words: Antitrypanosomal activity against Trypanosoma cruzi Y epimastigotes at 256 uM incubated for 48 hrs by resazurin dye reduction based ELISA method.
Test [2] has as its system Trypanosoma cruzi. In words: Antitrypanosomal activity against Trypanosoma cruzi Y epimastigotes at 128 uM incubated for 48 hrs by resazurin dye reduction based ELISA method.
In test [3] the test system is Trypanosoma cruzi. As to the kind of experiment: Antitrypanosomal activity against Trypanosoma cruzi DM28 epimastigotes at 256 uM incubated for 48 hrs by resazurin dye reduction based ELISA method. The following applies: DM28, 48 h.
The subject of test [4] is Trypanosoma cruzi. In words: Antitrypanosomal activity against Trypanosoma cruzi Y epimastigotes at 64 uM incubated for 48 hrs by resazurin dye reduction based ELISA method. For orientation: The colour change of resazurin is a common sign of viable cells or microbes.
The subject of test [5] is Trypanosoma cruzi. In words: Antitrypanosomal activity against Trypanosoma cruzi DM28 epimastigotes at 128 uM incubated for 48 hrs by resazurin dye reduction based ELISA method. The conditions noted are these: DM28, 48 h.
Test [6] concerns Trypanosoma cruzi. In words: Antitrypanosomal activity against Trypanosoma cruzi Y epimastigotes at 8 uM incubated for 48 hrs by resazurin dye reduction based ELISA method.
Test [7] deals with Trypanosoma cruzi. As to the kind of experiment: Antitrypanosomal activity against Trypanosoma cruzi Y epimastigotes at 16 uM incubated for 48 hrs by resazurin dye reduction based ELISA method.
The subject of test [8] is Trypanosoma cruzi. In words: Antitrypanosomal activity against Trypanosoma cruzi Y epimastigotes at 32 uM incubated for 48 hrs by resazurin dye reduction based ELISA method.

For `COc1cccc(/C=N\NC(=O)Nc2nnc(S)s2)c1`, the inhibition at 256 µM in test [1] turned out to be 77%; in test [3] it was 43%. In test [2], this compound registered an inhibition at 128 µM of 44%.

With `O=C(N/N=C\c1ccc(Cl)cc1)Nc1nnc(S)s1`, the inhibition at 256 µM stood at 67% in test [1] and 10% in test [3]. In test [2], this compound registered an inhibition at 128 µM of 51%.

Turning to `O=C(N/N=C\c1ccccc1)Nc1nnc(S)s1`, the inhibition at 256 µM in test [1] and in test [3] was 87% throughout. For the same compound, testing at 64 µM in test [4] gave an inhibition of 64%. The inhibition at 128 µM was found to be 84% in test [2] and 43% in test [5].

Consider `C/C(=N/NC(=O)Nc1nnc(S)s1)c1ccc(Cl)cc1`, for which the inhibition at 256 µM in test [1] is 32%; in test [3], 0%.

`O=C(Cn1ccnc1[N+](=O)[O-])NCc1ccccc1` [BENZNIDAZOLE]: the inhibition at 256 µM in test [1] came out at 91%. Moreover, the inhibition at 8 µM in test [6] is 51%. The inhibition at 16 µM in test [7] was determined as 66%. In test [4], the inhibition at 64 µM is 75%. The compound also returned an inhibition at 128 µM in test [2] of 80%. Moreover, at 32 µM the inhibition in test [8] was 60%.

As to `C/C(CC(C)C)=N/NC(=O)Nc1nnc(S)s1`, the inhibition at 256 µM in test [1] was 43%; in test [3], 20%.

As for `O=C(N/N=C1\C(=O)Nc2ccccc21)Nc1n[nH]c(=S)s1`, the figures for the inhibition at 256 µM in test [1] and in test [3] were 30% and 9%, respectively.

In the case of `O=C(N/N=C1\C(=O)Nc2ccc(Br)cc21)Nc1n[nH]c(=S)s1`, the inhibition at 256 µM in test [1] came to 20%; in test [3] it was 22%.

For `O=C(N/N=C\c1cccc(Br)c1)Nc1nnc(S)s1`, the values for the inhibition at 256 µM in test [1] and in test [3] were 58% and 34%, respectively.

For orientation: inhibition means how much of the control response was suppressed. Read a low inhibition as a weak effect.

(Values after ChEMBL document CHEMBL2321746, “Cloning, characterization, and sulfonamide and thiol inhibition studies of an α-carbonic anhydrase from Trypanosoma cruzi, the causative agent of Chagas disease” (J Med Chem, 2013).)
